By logD is commonly meant the decadic logarithm of the distribution of all forms, ionised or not, between an organic phase and buffer at a given pH. The low end stands for lower lipophilicity, the high end for higher lipophilicity. What is called Ki is a dissociation constant, usually derived from enzyme kinetics or from competition with a known ligand. Low values mean a stronger hold on the target, high ones a looser hold on the target. For orientation: EC50 means the concentration at which the effect is half-maximal. A lower EC50 goes with an effect from little substance. For orientation: IC50 means the concentration that gives 50% inhibition. A high value points to weaker potency.

Consider 24 molecules from ChEMBL document CHEMBL3734664, “Noncovalent Mutant Selective Epidermal Growth Factor Receptor Inhibitors: A Lead Optimization Case Study” (J Med Chem, 2015).

One data set can be described thus: physchem. Conditions: buffer, pH 7.4, logD.
A further data set concerns Liver microsome. The experiment in a line: Stability in human liver microsomes. It is filed as ADME.
Data set [1] addresses T1, Epidermal growth factor receptor (Homo sapiens, UniProt P00533).
Data set [2] deals with Epidermal growth factor receptor (Homo sapiens, UniProt P00533, L858R/T790M).
The next data set has as its system NCI-H1975. Description: Antiproliferative activity against human NCI-H1975 cells expressing EGFR T790M/L858R double mutant after 72 hrs by luminescence assay. The data set is classed as functional, cell-based. Conditions: NCI-H1975, 72 h.
The target in data set [3] is T1, Epidermal growth factor receptor. This is another data set of the same source.
Description: Inhibition of EGFR phosphorylation in human NCI-H292 cells preincubated for 1 hr followed by stimulation with EGF for 8 mins by electrochemiluminescent immunoassay

Chain of Epidermal growth factor receptor (Homo sapiens, UniProt P00533, L858R/T790M) (P00533 25-1210 T790M/L858R limits assumed): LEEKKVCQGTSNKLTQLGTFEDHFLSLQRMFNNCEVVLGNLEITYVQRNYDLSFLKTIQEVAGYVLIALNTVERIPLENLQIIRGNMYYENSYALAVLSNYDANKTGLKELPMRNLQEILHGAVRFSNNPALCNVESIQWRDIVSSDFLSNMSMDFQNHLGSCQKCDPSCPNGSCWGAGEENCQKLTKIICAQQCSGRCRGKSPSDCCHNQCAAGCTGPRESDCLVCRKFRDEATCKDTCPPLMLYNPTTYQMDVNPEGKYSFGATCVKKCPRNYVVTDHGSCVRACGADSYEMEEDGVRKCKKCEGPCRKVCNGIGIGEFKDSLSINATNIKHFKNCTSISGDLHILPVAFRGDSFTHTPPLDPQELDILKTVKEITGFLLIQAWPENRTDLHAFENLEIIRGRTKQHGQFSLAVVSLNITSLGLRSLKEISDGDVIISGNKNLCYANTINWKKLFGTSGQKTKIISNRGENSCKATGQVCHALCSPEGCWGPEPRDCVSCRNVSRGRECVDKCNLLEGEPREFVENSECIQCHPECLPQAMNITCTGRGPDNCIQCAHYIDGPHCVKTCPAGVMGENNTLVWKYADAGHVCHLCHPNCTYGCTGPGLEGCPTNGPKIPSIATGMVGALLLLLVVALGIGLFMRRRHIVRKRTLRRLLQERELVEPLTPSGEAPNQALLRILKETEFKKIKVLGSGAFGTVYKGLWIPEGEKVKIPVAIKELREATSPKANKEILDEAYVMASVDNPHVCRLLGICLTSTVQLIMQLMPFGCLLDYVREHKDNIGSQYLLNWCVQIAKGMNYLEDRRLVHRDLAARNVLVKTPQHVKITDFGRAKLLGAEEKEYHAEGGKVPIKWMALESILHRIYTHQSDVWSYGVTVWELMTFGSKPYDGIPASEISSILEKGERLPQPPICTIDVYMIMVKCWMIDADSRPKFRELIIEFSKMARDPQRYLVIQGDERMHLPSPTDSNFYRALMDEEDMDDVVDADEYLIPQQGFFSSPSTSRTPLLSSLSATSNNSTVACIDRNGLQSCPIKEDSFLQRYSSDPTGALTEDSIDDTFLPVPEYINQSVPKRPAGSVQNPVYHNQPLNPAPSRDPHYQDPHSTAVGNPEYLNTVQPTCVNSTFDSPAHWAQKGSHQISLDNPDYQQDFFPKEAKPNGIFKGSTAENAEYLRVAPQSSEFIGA
T1 sequence (P00533 whole entry): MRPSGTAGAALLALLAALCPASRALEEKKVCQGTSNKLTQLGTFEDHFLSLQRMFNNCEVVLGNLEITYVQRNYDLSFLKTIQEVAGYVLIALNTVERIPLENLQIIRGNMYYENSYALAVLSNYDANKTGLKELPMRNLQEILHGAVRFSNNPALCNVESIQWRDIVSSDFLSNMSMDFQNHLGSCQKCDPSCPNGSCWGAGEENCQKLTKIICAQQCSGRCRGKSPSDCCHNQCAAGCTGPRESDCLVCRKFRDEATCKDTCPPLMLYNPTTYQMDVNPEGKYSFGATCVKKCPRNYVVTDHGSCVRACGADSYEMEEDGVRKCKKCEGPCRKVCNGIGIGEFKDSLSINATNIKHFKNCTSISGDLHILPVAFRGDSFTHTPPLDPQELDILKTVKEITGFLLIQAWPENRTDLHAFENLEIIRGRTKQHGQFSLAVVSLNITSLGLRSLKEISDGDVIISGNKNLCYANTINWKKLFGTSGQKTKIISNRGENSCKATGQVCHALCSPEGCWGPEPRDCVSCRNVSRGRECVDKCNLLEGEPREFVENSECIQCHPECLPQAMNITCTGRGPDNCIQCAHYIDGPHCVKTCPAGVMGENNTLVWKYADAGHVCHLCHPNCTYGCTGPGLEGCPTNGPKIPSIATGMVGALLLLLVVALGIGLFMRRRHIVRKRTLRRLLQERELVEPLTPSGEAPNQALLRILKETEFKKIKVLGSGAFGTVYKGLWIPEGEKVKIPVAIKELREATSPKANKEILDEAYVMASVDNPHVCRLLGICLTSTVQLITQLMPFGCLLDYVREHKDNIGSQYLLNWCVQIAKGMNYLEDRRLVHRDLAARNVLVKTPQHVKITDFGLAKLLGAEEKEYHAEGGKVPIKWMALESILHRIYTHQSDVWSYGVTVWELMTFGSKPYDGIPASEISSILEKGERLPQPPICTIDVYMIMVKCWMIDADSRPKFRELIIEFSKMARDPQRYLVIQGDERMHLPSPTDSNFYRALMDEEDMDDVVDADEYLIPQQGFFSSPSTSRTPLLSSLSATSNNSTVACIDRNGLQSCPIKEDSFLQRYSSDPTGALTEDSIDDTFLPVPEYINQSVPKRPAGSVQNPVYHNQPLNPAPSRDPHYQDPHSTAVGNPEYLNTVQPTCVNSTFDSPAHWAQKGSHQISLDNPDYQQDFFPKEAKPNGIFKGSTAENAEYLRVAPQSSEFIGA
Description for physchem: Lipophilicity, log D of the compound at pH 7.4 by microscale shake flask method

`COC1(CCN)CCN(c2nccc(Nc3cc4c(cn3)nc(C)n4C(C)C)n2)CC1` showed a pH-dependent lipophilicity (logD) in the data set “physchem” of 0.1. For the same molecule, the Stability result in the data set on Liver microsome is recorded as “Stable”.

Consider `Cc1nc2cnc(Nc3ccnc(SCC(C)(C)C(N)=O)n3)cc2n1C(C)C`, for which the Ki in data set [1] is above 2500 nM; in data set [2], 658 nM. The log distribution coefficient (logD) in “physchem” stood at 1.9.

Molecule `COC1CCN(c2nccc(Nc3cc4c(cn3)ncn4C3CCOC3)n2)CC1` (racemic) showed a logD in “physchem” of 1.8. In addition, in data set [2], the affinity, expressed as Ki, was 149 nM.

On to `COC1CCN(c2nccc(Nc3cc4c(cn3)nc(CO)n4C(C)C)n2)CC1`, for which the Ki in data set [1] was 400 nM; in data set [2], 19 nM. For the same molecule, the half-maximal effective concentration (EC50) with NCI-H1975 turned out to be 6500 nM. This molecule returned a logD in the data set “physchem” of 2.3.

In the case of `Cc1nc2cnc(Nc3ccnc(N4CC[C@H](O)C(F)(F)C4)n3)cc2n1C(C)C` (racemic), the Ki in data set [1] is above 403 nM; in data set [2] it was 9.5 nM. The same molecule had an EC50 in the data set on NCI-H1975 of 1700 nM. The molecule further displayed a logD in the data set “physchem” of 2.6. Also, in data set [3], the 50% inhibitory concentration (IC50) was above 10 µM.

On to `CCC(C)n1cnc2cnc(Nc3ccnc(N4CCC(OC)CC4)n3)cc21` (racemic; form 3), for which, in data set [2], the inhibition constant Ki was determined as 22 nM.

As for `CO[C@H]1CCN(c2nccc(Nc3cc4c(cn3)nc(CO)n4C(C)C)n2)C[C@@H]1F` (racemic), the Ki in data set [1] amounted to 540 nM; in data set [2], 57 nM.

In turn, `COC1CCN(c2nccc(Nc3cc4c(cn3)ncn4C(C)C(F)(F)F)n2)CC1` (racemic) gave a logD in “physchem” of 2.7. The molecule also had a Ki in data set [2] of 27 nM.

`CO[C@H]1CCN(c2nccc(Nc3cc4c(cn3)nc(CO)n4C(C)C)n2)CC1(F)F` (racemic) gave a 50% effective concentration (EC50) with NCI-H1975 of 2380 nM. The logD in “physchem” turned out to be 2.8.

Turning to `CCC(C)n1cnc2cnc(Nc3ccnc(N4CCC(OC)CC4)n3)cc21` (racemic; form 1), the log distribution coefficient (logD) in “physchem” was 2.8. The molecule further came in with a Ki in data set [2] of 14 nM.

Molecule `COC1CCN(c2nccc(Nc3cc4c(cn3)ncn4CC(F)(F)F)n2)CC1` registered a logD in “physchem” of 2.8. In data set [2], this molecule yielded a Ki of 71 nM.

`CC(C)n1cnc2cnc(Nc3ccnc(N4CCC(C(N)=O)CC4)n3)cc21` gave a logD in “physchem” of 1.7. The same molecule gave a Ki in data set [2] of 151 nM.

On to `COC1CCN(c2nccc(Nc3cc4c(cn3)ncn4C3CC3)n2)CC1`, for which, in “physchem”, the logD stood at 2.3. The molecule also came in with a Ki in data set [2] of 87 nM.

On to `COC1(CCO)CCN(c2nccc(Nc3cc4c(cn3)nc(C)n4C(C)C)n2)CC1`, for which the logD in “physchem” turned out to be 2. In data set [2], the inhibitory constant (Ki) was determined as 50 nM.

For `COC1CCN(c2nccc(Nc3cc4c(cn3)ncn4C3CCCCC3)n2)CC1`, the pH-dependent lipophilicity (logD) in the data set “physchem” stood at 3.4. The molecule further returned an inhibition constant Ki in data set [2] of 18 nM.

`COC1(CN(C)C)CCN(c2nccc(Nc3cc4c(cn3)nc(C)n4C(C)C)n2)CC1`: the logD in “physchem” worked out at 1.5. In addition, the affinity in data set [2], expressed as Ki, was 492 nM.

Turning to `COC1CCN(c2nccc(Nc3cc4c(cn3)ncn4C3CCCC3)n2)CC1`, the log distribution coefficient (logD) in the data set “physchem” stood at 2.9.

Turning to `COC1CCN(c2nccc(Nc3cc4c(cn3)ncn4C3CCC3)n2)CC1`, the log distribution coefficient (logD) in “physchem” came out at 2.8. In data set [2], this molecule registered a Ki of 48 nM.

As to `CO[C@H]1CCN(c2nccc(Nc3cc4c(cn3)nc(C)n4C(C)C)n2)C[C@@H]1F` (racemic), the values for the inhibition constant (Ki) in data set [1] and in data set [2] were 1840 nM and 44 nM, respectively. This molecule yielded a pH-dependent lipophilicity (logD) in the data set “physchem” of 2.5.

For `CO[C@H]1CCN(c2nccc(Nc3cc4c(cn3)nc(C)n4C(C)C)n2)C[C@H]1F` (racemic), the inhibitory constant (Ki) was determined as 1080 nM in data set [1] and 2.7 nM in data set [2]. The molecule also registered a concentration for a half-maximal effect (EC50) in the data set on NCI-H1975 of 560 nM. This molecule returned a pH-dependent lipophilicity (logD) in “physchem” of 2.3. In addition, the IC50 in data set [3] is above 10 µM.

Take `CCn1cnc2cnc(Nc3ccnc(N4CCC(OC)CC4)n3)cc21`: in “physchem”, the pH-dependent lipophilicity (logD) is 2.4. The Ki in data set [2] came to 201 nM.

`COC1CCN(c2nccc(Nc3cc4[nH]cnc4cn3)n2)CC1` returned a Ki in data set [1] of 1200 nM. In addition, the EC50 in the data set on NCI-H1975 is 7000 nM. In the data set “physchem”, this molecule returned a pH-dependent lipophilicity (logD) of 1.9.

Consider `COC1CCN(c2nccc(Nc3cc4c(cn3)ncn4C3CCOCC3)n2)CC1`, for which the logD in the data set “physchem” was 2.1. The molecule further returned a Ki in data set [2] of 76 nM.

For the molecule `COCC1(OC)CCN(c2nccc(Nc3cc4c(cn3)nc(C)n4C(C)C)n2)CC1`, in “physchem”, the log distribution coefficient (logD) is 2.4. The inhibition constant Ki in data set [2] was determined as 77 nM.
